pIC50: −log10 of the molar value. Converted amounts (≈) assume the structure as drawn.
Legend:
U937 cells = test: Cellular assay in U937 cells to measure the activity of RIPK1-inhibitors on cell death (necroptosis); format: cell-based; details: Homo sapiens, U-937, 50 μM zVAD.fmk and 100 ng/ml recombinant human TNFα, overnight (18 to 24 hrs), MTS readout
Experimental: Absorbance of formazan was read at 490 nm. The inhibitory activity of the test compound was quantified in a concentration response curve (CRC) experiment.
Compounds were obtained as 10 mM stock solutions and were diluted 1 to 10 volumes with DMSO to yield a 1 mM solution. From this solution 2 μl were diluted with 998 μl growth medium.
U937 cells were cultured in RPMI1640 Glutamax and 10% heat inactivated FBS. […] 50 μl of compound dilutions, as described in Cellular assay in U937 cells, were added and the cell suspension incubated overnight (18 to 24 hrs) at 37° C., 5% CO2 in a humidified atmosphere (95% rH).
CellTiter 96 Aqueous reagent was mixed (100 μl PMS (phenazine methosulfate) solution/2 ml MTS (3-(4,5-[…])-5-(3-carboxymethoxyphenyl)-2-(4-sulfophenyl)-2H-tetrazolium, inner salt) solution) and 20 μl were added per well. After 4 hrs incubation at 37° C. (5% CO2 95% rH) optical density was measured at 490 nm on a microplate reader (Tecan Infinite M1000).
The % inhibition is expressed as percentage of the maximal inhibition value obtained in the absence of TNFα/zVAD.fmc.

physchem = details: 50 mM phosphate buffer, 25 °C, pH 7.4, aqueous buffer, thermodynamic from solid

| Structure (SMILES) | solubility at 16 h (physchem) [µM] | pIC50 (U937 cells) |
| --- | --- | --- |
| Cc1nc([C@@H]2CCON2C(=O)C2CCN(c3ncnc(-n4ccnc4C)n3)CC2)cs1 [Example 23, [1-[4-(2-methylimidazol-1-yl)-1,3,5-triazin-2-yl]-4-piperidyl]-[(3S)-3-(2-methylthiazol-4-yl)isoxazolidin-2-yl]methanone] | > 1140 | 9.00 |
| Cn1nccc1-c1nccc(N2CCC(C(=O)N3OCC[C@H]3c3cnccn3)CC2)n1 [Example 24, [1-[2-(2-methylpyrazol-3-yl)pyrimidin-4-yl]-4-piperidyl]-[(3S)-3-pyrazin-2-ylisoxazolidin-2-yl]methanone] | > 1190 | 8.05 |
| O=C(C1CCN(c2nc(-c3cncnc3)ncc2F)CC1)N1OCC[C@H]1c1cnccn1 [Example 25, [1-(5-fluoro-2-pyrimidin-5-yl-pyrimidin-4-yl)-4-piperidyl]-[(3S)-3-pyrazin-2-ylisoxazolidin-2-yl]methanone] | 69.2 (≈ 30.2 µg/mL) | 7.82 |
| Cc1nccn1-c1nccc(N2CCC(C(=O)N3OCC[C@H]3c3cnccn3)CC2)n1 [Example 29, (S)-(1-(2-(2-methyl-1H-imidazol-1-yl)pyrimidin-4-yl)piperidin-4-yl)(3-(pyrazin-2-yl)isoxazolidin-2-yl)methanone] | > 1190 | 8.22 |
| Cc1nccn1-c1ccnc(N2CCC(C(=O)N3OCC[C@H]3c3cnccn3)CC2)n1 [Example 30, (S)-(1-(4-(2-methyl-1H-imidazol-1-yl)pyrimidin-2-yl)piperidin-4-yl)(3-(pyrazin-2-yl)isoxazolidin-2-yl)methanone] | > 1190 | 8.52 |
| Cc1nccn1-c1cc(N2CCC(C(=O)N3OCC[C@H]3c3cnccn3)CC2)ncn1 [Example 31, (S)-(1-(6-(2-methyl-1H-imidazol-1-yl)pyrimidin-4-yl)piperidin-4-yl)(3-(pyrazin-2-yl)isoxazolidin-2-yl)methanone] | > 1190 | 7.49 |
| Cc1ccc([C@@H]2CCON2C(=O)C2CCN(c3nccc(-c4ncco4)n3)CC2)cn1 [Example 37, [(3S)-3-(6-methylpyridin-3-yl)-1,2-oxazolidin-2-yl]-[1-[4-(1,3-oxazol-2-yl)pyrimidin-2-yl]piperidin-4-yl]methanone] | 34.7 (≈ 14.6 µg/mL) | 7.39 |
| Cc1ccc([C@@H]2CCON2C(=O)C2CCN(c3ncnc(-c4nccs4)n3)CC2)cn1 [Example 38, [(3S)-3-(6-methylpyridin-3-yl)-1,2-oxazolidin-2-yl]-[1-[4-(1,3-thiazol-2-yl)-1,3,5-triazin-2-yl]piperidin-4-yl]methanone] | 275 (≈ 120 µg/mL) | 7.29 |
| Cc1nc([C@@H]2CCON2C(=O)C2CCN(c3cc(-c4ncnn4C)ncn3)CC2)cs1 [Example 40, [(3S)-3-(2-methyl-1,3-thiazol-4-yl)-1,2-oxazolidin-2-yl]-[1-[6-(2-methyl-1,2,4-triazol-3-yl)pyrimidin-4-yl]piperidin-4-yl]methanone] | 136 (≈ 60 µg/mL) | 7.40 |
| Cc1ncc([C@@H]2CCON2C(=O)[C@@H]2CCN(c3cc(-c4ncnn4C)ncn3)CC23CC3)cc1F [Example 43, [(3S)-3-(5-fluoro-6-methylpyridin-3-yl)-1,2-oxazolidin-2-yl]-[(8R)-5-[6-(2-methyl-1,2,4-triazol-3-yl)pyrimidin-4-yl]-5-azaspiro[2.5]octan-8-yl]methanone] | > 1040 | 7.24 |
| Cc1ccc([C@@H]2CCON2C(=O)[C@@H]2CCN(c3nccc(N4CCCC4=O)n3)CC23CC3)cn1 [Example 44, 1-[2-[(8R)-8-[(3S)-3-(6-methylpyridin-3-yl)-1,2-oxazolidine-2-carbonyl]-5-azaspiro[2.5]octan-5-yl]pyrimidin-4-yl]pyrrolidin-2-one] | 380 (≈ 176 µg/mL) | 7.60 |
| Cc1ncc([C@@H]2CCON2C(=O)C2CCN(c3ncnc(-c4ccnn4C)n3)CC2)cc1F [Example 45, [(3S)-3-(5-fluoro-6-methylpyridin-3-yl)-1,2-oxazolidin-2-yl]-[1-[4-(2-methylpyrazol-3-yl)-1,3,5-triazin-2-yl]piperidin-4-yl]methanone] | 904 (≈ 409 µg/mL) | 9.00 |
| O=C1CCCN1c1ccnc(N2CCC(C(=O)N3OCC[C@H]3c3cncc(F)c3)CC2)n1 [Example 46, 1-[2-[4-[(3S)-3-(5-fluoropyridin-3-yl)-1,2-oxazolidine-2-carbonyl]piperidin-1-yl]pyrimidin-4-yl]pyrrolidin-2-one] | > 1140 | 7.74 |
| Cc1ncc([C@@H]2CCON2C(=O)[C@@H]2CCN(c3ncnc(-c4ccnn4C)n3)CC23CC3)cc1F [Example 48, [(3S)-3-(5-fluoro-6-methylpyridin-3-yl)-1,2-oxazolidin-2-yl]-[(8R)-5-[4-(2-methylpyrazol-3-yl)-1,3,5-triazin-2-yl]-5-azaspiro[2.5]octan-8-yl]methanone] | 231 (≈ 111 µg/mL) | 8.52 |
| Cc1nc([C@@H]2CCON2C(=O)C2CCN(c3nccc(N4CCC5(CC5)C4=O)n3)CC2)cs1 [Example 52, 5-[2-[4-[(3S)-3-(2-methyl-1,3-thiazol-4-yl)-1,2-oxazolidine-2-carbonyl]piperidin-1-yl]pyrimidin-4-yl]-5-azaspiro[2.4]heptan-4-one] | 321 (≈ 151 µg/mL) | 7.62 |
| O=C(C1CCN(c2nccc(N3CCCC4(CC4)C3=O)n2)CC1)N1OCC[C@H]1c1cnccn1 [Example 57, 5-[2-[4-[(3S)-3-pyrazin-2-yl-1,2-oxazolidine-2-carbonyl]piperidin-1-yl]pyrimidin-4-yl]-5-azaspiro[2.5]octan-4-one] | > 1080 | 7.23 |
| Cc1ccc([C@@H]2CCON2C(=O)[C@@H]2CCN(c3ncnc(-c4ccnn4C)n3)CC23CC3)cn1 [Example 69, [(8R)-5-[4-(2-methylpyrazol-3-yl)-1,3,5-triazin-2-yl]-5-azaspiro[2.5]octan-8-yl]-[(3S)-3-(6-methylpyridin-3-yl)-1,2-oxazolidin-2-yl]methanone] | 601 (≈ 277 µg/mL) | 8.05 |

Now from value to compound, other results behind:

| solubility at 16 h (physchem) [µM] | Structure (SMILES) | pIC50 (U937 cells) |
| --- | --- | --- |
| > 1140 | O=C1CCCCN1c1ccnc(N2CCC(C(=O)N3OCC[C@H]3c3cnccn3)CC2)n1 [Example 47, 1-[2-[4-[(3S)-3-pyrazin-2-yl-1,2-oxazolidine-2-carbonyl]piperidin-1-yl]pyrimidin-4-yl]piperidin-2-one] | 7.15 |
| > 1150 | Cc1cncc([C@@H]2CCON2C(=O)C2CCN(c3nccc(N4CCCC4=O)n3)CC2)c1 [Example 50, 1-[2-[4-[(3S)-3-(5-methylpyridin-3-yl)-1,2-oxazolidine-2-carbonyl]piperidin-1-yl]pyrimidin-4-yl]pyrrolidin-2-one] | 7.48 |
| > 1100 | Cc1ncc([C@@H]2CCON2C(=O)C2CCN(c3nccc(N4CCCC4=O)n3)CC2)cc1F [Example 56, 1-[2-[4-[(3S)-3-(5-fluoro-6-methylpyridin-3-yl)-1,2-oxazolidine-2-carbonyl]piperidin-1-yl]pyrimidin-4-yl]pyrrolidin-2-one] | 7.68 |
| 217 (≈ 104 µg/mL) | Cc1nc([C@@H]2CCON2C(=O)C2CCN(c3nccc(N4CCC(F)(F)C4=O)n3)CC2)cs1 [Example 59, 3,3-difluoro-1-[2-[4-[(3S)-3-(2-methyl-1,3-thiazol-4-yl)-1,2-oxazolidine-2-carbonyl]piperidin-1-yl]pyrimidin-4-yl]pyrrolidin-2-one] | 7.10 |
| 209 (≈ 95.5 µg/mL) | Cc1ncc([C@@H]2CCON2C(=O)C2CCN(c3nccc(N4CCOC4=O)n3)CC2)cc1F [Example 65, 3-[2-[4-[(3S)-3-(5-fluoro-6-methylpyridin-3-yl)-1,2-oxazolidine-2-carbonyl]piperidin-1-yl]pyrimidin-4-yl]-1,3-oxazolidin-2-one] | 8.22 |
| > 1140 | O=C1CCCN1c1nccc(N2CCC(C(=O)N3OCC[C@H]3c3cncc(F)c3)CC2)n1 [Example 71, 1-[4-[4-[(3S)-3-(5-fluoropyridin-3-yl)-1,2-oxazolidine-2-carbonyl]piperidin-1-yl]pyrimidin-2-yl]pyrrolidin-2-one] | 5.63 |
| 98.4 (≈ 46.9 µg/mL) | O=C(C1CCN(c2nccc(N3CCC(F)(F)C3=O)n2)CC1)N1OCC[C@H]1c1cncc(F)c1 [Example 75, 3,3-difluoro-1-[2-[4-[(3S)-3-(5-fluoropyridin-3-yl)-1,2-oxazolidine-2-carbonyl]piperidin-1-yl]pyrimidin-4-yl]pyrrolidin-2-one] | 7.24 |
| > 1110 | Cc1ccc([C@@H]2CCON2C(=O)C2CCN(c3ncc(F)c(-n4ccnc4C)n3)CC2)cn1 [Example 77, [1-[5-fluoro-4-(2-methylimidazol-1-yl)pyrimidin-2-yl]piperidin-4-yl]-[(3S)-3-(6-methylpyridin-3-yl)-1,2-oxazolidin-2-yl]methanone] | 9.00 |
| > 1150 | Cc1ccc([C@@H]2CCON2C(=O)C2CCN(c3nccc(N4CCCC4=O)n3)CC2)cn1 [Example 81, 1-[2-[4-[(3S)-3-(6-methylpyridin-3-yl)-1,2-oxazolidine-2-carbonyl]piperidin-1-yl]pyrimidin-4-yl]pyrrolidin-2-one] | 7.28 |

Source: patent US20260234136A1, “ISOXAZOLIDINES AS RIPK1 INHIBITORS AND USE THEREOF” (GENZYME CORPORATION, priority 2023, published 2026)
